# Tested on: A II-infused rat
# Assay: A II-infused rat model (ganglion-blocked, intraduodenal dosing), antihypertensive action
# Assay type: in vivo
# Details: 10 mg/kg id, one half hour post-administration
# Experimental: In accordance with their ability to antagonize angiotensin II, the compounds of this invention show antihypertensive action in the following A II-infused rat model. Rats are anesthetized with Dial-Urethane (0.60 mL/kg, ip) and the trachea cannulated with PE 240. Either one femoral artery and both femoral veins or the carotid artery and the corresponding jugular vein are cannulated with PE 50. If the jugular vein is cannulated, two cannulas are placed in the one vein. The initial portion of the duodenum (just distal to the stomach) is cannulated with PE 50 via a small midline incision. Arterial pressure and heart rate are measured from the arterial cannula. Ten to 15 min are allowed following surgery for stabilization of arterial pressure. Ganglion blockade is then produced by intravenous administration of mecamylamine at 3 mg/kg (1 mL/kg of a 3 mg/mL solution). Ganglion blockade causes a fall in arterial pressure of about 50 mmHg. Mecamylamine is given every 90 min throughout the remainder of the experiment. An A II infusion is then begun into the other venous cannula at […] (at 9.6 uLmin). The A II infusion returns arterial pressure to or slightly above the control level. Once arterial pressure has stabilized with the A II infusion, baseline values for mean arterial pressure (MAP) and heart rate are taken. […]
smiles,measurement,value
O=C(O)c1ccccc1-c1ccc(CNc2nc(C(F)(F)F)nc3ccsc23)cc1 [Example 36],lowering of the A II dependent blood pressure (average),45%

# — patent US5187168A, “Substituted quinazolines as angiotensin II antagonists” (American Home Products Corporation, priority 1991, dated 1993)
